{"source": "patent US20110244050A1", "about": "“PULSED-RELEASE SILDENAFIL COMPOSITION AND METHOD FOR PREPARING SAID COMPOSITION” (SIEGFRIED RHEIN S.A. DE C.V., priority 2008, published 2011)", "origin": "cited, not measured here", "key": {"[1]": {"conditions": "in vivo"}}, "data": [{"compound": "CCCc1nn(C)c2c(=O)[nH]c(-c3cc(S(=O)(=O)N4CCN(C)CC4)ccc3OCC)nc12", "note": "[sildenafil]", "values": [{"measurement": "plasmatic elimination half-life", "setting": "[1]", "value": "about 4 hours"}, {"measurement": "solubility in acidic media", "setting": "acidic media, like in the stomach", "value": "adequate"}, {"measurement": "solubility in alkaline media", "setting": "alkaline media, like that found in the intestine", "value": "decreases markedly"}]}]}
